Here are results for 1 molecule from PMC12015663 (Cancer Research Communications, 2025).

A short description of data set [1]: PK parameters in human. The data set is classed as in vivo. Particulars: 600 mg, QW.
Data set [2] relates to NF1-LOF MeWo xenograft. Briefly: Antitumor efficacy in vivo, NF1-LOF MeWo xenograft. Details: species or system mice. Particulars: 25 mg/kg orally daily for 28 days. How it is done: Female mice with tumors harboring an AGK::BRAF fusion melanoma PDX or NF1-LOF ERMS PDX were established by inoculating NOD or NOG/SCID mice, respectively, with tumor fragments harvested from stock mice. Mice with tumors harboring an NF1-LOF mutation MeWo xenograft were established in 10 mice per treatment group by inoculating 7- to 9-week-old female BALB/c nude mice on the right flank with tumor cells (5 × 10^6) in 0.1 mL of PBS mixed with Matrigel (1:1) for tumor development. For the AGK::BRAF fusion melanoma PDX model, 7- to 8-week-old mice were inoculated subcutaneously on the right flank and randomized into eight mice per treatment group. […]
Randomization was performed based on the “Matched distribution” method (StudyDirector software, version 3.1.399.19) with the date of randomization denoted as day 0. Tumor volumes and body weight were measured twice per week after randomization. Tumor volume was measured in two dimensions (2D) using a caliper, and the volume was expressed in mm^3 using the formula V = (L × W × W)/2, in which V was tumor volume, L was tumor length (the longest tumor dimension), and W was tumor width (the longest tumor dimension perpendicular to L). Percentage change in tumor volume and body weight was calculated using StudyDirector software (version 3.1.399.19). […]

The subject of data set [3] is A375. Briefly: CellTiter-Glo cell viability assay, A375. (In general: ATP-based viability assays read luminescence as a measure of living cells.)
Data set [4] concerns pERK in AGK::BRAF fusion melanoma PDX tumors. Briefly: pERK modulation in vivo (PK-PD study), AGK::BRAF fusion melanoma PDX tumors, Western blot. Also on record: species or system mice. On the procedure:
Tumor and plasma samples were collected at 4, 8, and 24 hours after dose administration (three mice per timepoint). […] Tumor and plasma samples were collected at 4 and 24 hours after dose administration (three mice per time point). Tumor samples were snap-frozen and analyzed by Western blotting for pERK levels. Plasma samples were analyzed by the LC/MS-MS method to confirm plasma drug concentration.
Tumor samples were lysed with RIPA buffer (Thermo Fisher Scientific, cat. no. 89901) containing one complete EDTA-free tablet (Roche, cat. no. 05892791001) and one phosphatase inhibitor cocktail tablet (Roche, cat. no. 04906845001) per 10 mL of RIPA buffer. Protein concentration was determined using bicinchoninic acid assay (Pierce, cat. no. 23227). Samples were loaded at 25 to 30 μg/lane on 4% to 12% NuPAGE Bis-Tris gels (Invitrogen, cat. no. WG1403BOX) and were run in MOPS-SDS running buffer (Invitrogen, cat. no. NP0001) at constant voltage (120V) for approximately 2 hours. The gels were transferred onto a pre-activated polyvinylidene fluoride membrane (Millipore, cat. no. IPVH00010) in transfer buffer (Bio-Rad, cat. no. 161-0734). […] Blots were scanned and quantified using the Odyssey (LI-COR Biosciences) or Tanon 5200 Multi Image system (Tanon), and each sample was normalized to allow comparison.

For data set [5], the system named is pERK in NCI-H1838 (NF1-LOF). Briefly: pERK modulation in vitro, MSD ELISA, NCI-H1838.

`C[C@@H](NC(=O)c1ncnc(N)c1Cl)c1ncc(C(=O)Nc2cc(C(F)(F)F)c(Cl)cn2)s1` [Tovorafenib]: in data set [1], the Cmin turned out to be 899 ng/mL. In addition, the AUC(0-t) in data set [1] (in vivo, calculated from weekly AUC0-168 divided by 7, read-out: Daily AUC0-24) is 47600 ng·h/mL. Moreover, in data set [2], the tolerability entry was “well tolerated”. Further, the antitumor activity result in data set [2] (BALB/c nude mice) is recorded as “Lack of significant antitumor activity”. The “anti-proliferative activity” value in data set [3] (A375, CTG 72 hours) is “potent”. Besides, the EC50 in data set [3] (Homo sapiens, A-375, 72 h, read-out: Proliferation EC50) is 0.62 µM; in data set [5] (Homo sapiens, NCI-H1838, 1 h, read-out: pERK EC50), more than 10 µM. Besides, the “pERK in tumor compared with vehicle control” value in data set [4] (single oral dose 17.5 mg/kg, 8 and 24 hours after dose) is “Inhibition of pERK was observed”; in data set [4] (single oral dose 25 mg/kg, 4, 8, and 24 hours after dose), “Inhibition of pERK was observed”. Moreover, the “extent of the pERK increase” value in data set [5] (NCI-H1838, 1 hour after treatment, compared across type II RAF inhibitors) is on record as “higher extent”. Besides, the “pERK increase across the full concentration range” value in data set [5] (NCI-H1838, 6 hours after treatment) is “lack of increase in pERK”.
